According to patent US10703746B2, “Mutant IDH1 inhibitors useful for treating cancer” (THE UNITED STATES OF AMERICA, AS REPRESENTED BY THE …, priority 2014, dated 2020):

Experiments:
IDH1 R132C = IDH1 R132C (Homo sapiens, UniProt O75874, R132C); assay: IDH1 R132C enzymatic assay (NADPH depletion coupled to diaphorase/resazurin); assay type: biochemical
Method in brief: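 NADPH depletion, read via diaphorase/resazurin coupling, after adding substrate at 0.6 mM α-KG and 0.012 mM NADPH. Beforehand, 0.00032 mg/mL enzyme sat with compound 30 min at room temperature in pH 6.5 potassium phosphate buffer with MgCl2, glycerol and BSA.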

IDH1 R132H = IDH1 R132H (Homo sapiens, UniProt O75874, R132H); assay: IDH1 R132H enzymatic assay (NADPH depletion coupled to diaphorase/resazurin); assay type: biochemical
[1] = IDH1 R132C enzymatic inhibition, IC50 class
[2] = IDH1 R132H enzymatic inhibition, IC50 class
[3] = enzymatic inhibition, IDH1 R132C
[4] = enzymatic inhibition, IDH1 R132H

IDH1 R132H, sequence (O75874 whole entry R132H): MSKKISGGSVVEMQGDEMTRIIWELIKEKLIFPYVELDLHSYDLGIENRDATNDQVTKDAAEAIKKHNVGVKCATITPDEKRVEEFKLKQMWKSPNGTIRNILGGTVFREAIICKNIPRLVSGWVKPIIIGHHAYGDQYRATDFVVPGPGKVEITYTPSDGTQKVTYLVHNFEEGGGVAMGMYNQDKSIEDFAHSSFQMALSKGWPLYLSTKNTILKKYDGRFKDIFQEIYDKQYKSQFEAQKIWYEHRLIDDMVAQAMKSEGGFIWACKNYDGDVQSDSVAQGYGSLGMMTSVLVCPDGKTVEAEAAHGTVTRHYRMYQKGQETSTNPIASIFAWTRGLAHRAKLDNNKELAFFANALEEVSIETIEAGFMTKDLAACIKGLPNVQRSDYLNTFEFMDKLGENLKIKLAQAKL
IDH1 R132C, sequence (O75874 whole entry R132C): as the sequence (O75874 whole entry R132H) above, with H132C counted along it

SMILES | IC50 (IDH1 R132C; [1]) | IC50 (IDH1 R132H; [2]) | IC50 (IDH1 R132C; [3]) | IC50 (IDH1 R132H; [4])
CCc1cccc(CC)c1-n1c(C)c(C(=O)NCc2ccccc2)cc(-c2nc(-c3ccc(Cl)cc3)cs2)c1=O [Compound 192] | 1 to 5 µM | > 20 µM |  | 
CCc1cccc(CC)c1-n1c(C=C(C)C)c(C(=O)N2CCN[C@@H](C(=O)O)C2)cc(-c2nc(-c3ccc(C(F)(F)F)cc3)cs2)c1=O [Compound 641] | < 0.3 µM | < 0.3 µM |  | 
CCc1cccc(CC)c1-n1c(C)c(C(=O)N[C@@H]2CCCC[C@@H]2N)cc(-c2nc(-c3ccc(Cl)cc3)cs2)c1=O [Compound 214] | 0.3 to 1 µM | 5 to 20 µM |  | 
COc1ccc(Cl)c(-n2c(C=C(C)C)c(C(=O)N3CCNCC3)cc(-c3ccn(-c4ccc(Cl)cc4)n3)c2=O)c1 [Compound 389] | 0.3 to 1 µM | < 0.3 µM |  | 
CCOC(=O)c1c(O)c(-c2nc(-c3ccc(Cl)cc3)cs2)c(=O)n(-c2c(CC)cccc2CC)c1C [Compound 347, ethyl 5-(4-(4-chlorophenyl)thiazol-2-yl)-1-(2,6-diethylphenyl)-4-hydroxy-2-methyl-6-oxo-1,6-dihydropyridine-3-carboxylate] | 5 to 20 µM | 5 to 20 µM |  | 
CCc1cccc(CC)c1-n1c(C=C(C)C)c(C(=O)N2CC3(CNC3)C2)cc(-c2nc(-c3ccc(Cl)cc3)cs2)c1=O [Compound 512] |  |  | < 0.3 µM | < 0.3 µM
CCc1cccc(CC)c1-n1c(C=C(C)C)c(C(=O)N2CCCNC(=O)C2)cc(-c2nc(-c3ccc(Cl)cc3)cs2)c1=O [Compound 529] |  |  | < 0.3 µM | < 0.3 µM
CCc1cccc(CC)c1-n1c(C)c(C(=O)N2CCCC2C(=O)O)cc(-c2nc(-c3ccc(Cl)cc3)cs2)c1=O (stereo not drawn) [Compound 258] | 1 to 5 µM | 1 to 5 µM |  | 
CCc1cccc(CC)c1-n1c(C)c(C(=O)N2CCNC(C(=O)O)C2)cc(-c2nc(-c3ccc(Cl)cc3)cs2)c1=O (stereo not drawn) [Compound 198] | 0.3 to 1 µM | 0.3 to 1 µM |  | 
COc1cccc(Cl)c1-n1c(C=C(C)C)c(C(=O)N2CCNCC2)cc(-c2nc(-c3ccc(Cl)cc3)cs2)c1=O [Compound 397] | < 0.3 µM | < 0.3 µM |  | 
CCc1cccc(CC)c1-n1c(CC(C)C)c(C(=O)N2CCNC(C(=O)O)C2)cc(-c2nc(-c3ccc(Cl)cc3)cs2)c1=O (stereo not drawn) [Compound 171] | < 0.3 µM | < 0.3 µM |  | 
COc1ccc(OC)c(-n2c(C)ccc(-c3nc(-c4ccc(Cl)cc4)cs3)c2=O)c1 [Compound 62] | 5 to 20 µM | > 20 µM |  | 
CN1CCN(Cc2ccccc2-n2c3c(cc(-c4nc(-c5ccc(Cl)cc5)cs4)c2=O)C(=O)CC(C)(C)C3)CC1 [Compound 547] |  |  | 5 to 20 µM | 5 to 20 µM
CCc1cccc(CC)c1-n1c(C(C)OC)c(C(=O)N2CCNCC2)cc(-c2nc(-c3ccc(Cl)cc3)cs2)c1=O (stereo not drawn) [Compound 459] |  |  | < 0.3 µM | < 0.3 µM
CCc1cccc(CC)c1-n1c(CC(C)C)c(C(=O)NC[C@@H](N)C(=O)O)cc(-c2nc(-c3ccc(Cl)cc3)cs2)c1=O [Compound 172] | < 0.3 µM | 0.3 to 1 µM |  | 
CCc1cccc(CC)c1-n1c(C)c(C(=O)N2CCC(C(=O)O)CC2)cc(-c2nc(-c3ccc(Cl)cc3)cs2)c1=O [Compound 109] | 5 to 20 µM | 1 to 5 µM |  | 
CCCCc1ccc(-c2nc(-c3cc(C(=O)N4CCNCC4)c(CC(C)C)n(-c4c(CC)cccc4CC)c3=O)sc2C)cc1 [Compound 44] | 1 to 5 µM | 1 to 5 µM |  | 
CCc1cccc(CC)c1-n1c2c(cc(-c3nc(-c4ccc(C)cn4)c(C)s3)c1=O)C(=O)CC(C)(C)C2 [Compound 292] | 1 to 5 µM | 1 to 5 µM |  | 
Cc1c(N)cccc1-n1c2c(cc(-c3nc(-c4ccc(Cl)cc4)cs3)c1=O)C(=O)CC(C)(C)C2 [Compound 288] | 1 to 5 µM | 1 to 5 µM |  | 
COc1ccc(F)cc1-n1c(C=C(C)C)c(C(=O)N2CCNCC2)cc(-c2nc(-c3ccc(Cl)cc3)cs2)c1=O [Compound 630] | < 0.3 µM | < 0.3 µM |  | 
CCc1cccc(CC)c1-n1c2c(cc(-c3nc(-c4cnc(C)nc4)c(C)s3)c1=O)C(=O)CC(C)(C)C2 [Compound 161] | 1 to 5 µM | 5 to 20 µM |  | 
CCc1cccc(CC)c1-n1c(C=C(C)C)c(C(=O)N2CCNCC2)cc(-c2nc(-c3ccc(C(F)F)cn3)cs2)c1=O [Compound 559] |  |  | < 0.3 µM | < 0.3 µM
CCc1cccc(CC)c1-n1c(CC2CCCCO2)c(C(=O)N2CCNCC2)cc(-c2nc(-c3ccc(Cl)cc3)cs2)c1=O (stereo not drawn) [Compound 455] |  |  | 0.3 to 1 µM | 1 to 5 µM
CCc1ccc(C)cc1-n1c(C=C(C)C)c(C(=O)N2CCNCC2)cc(-c2nc(-c3ccc(Cl)cc3)cs2)c1=O [Compound 656] | < 0.3 µM | < 0.3 µM |  | 
CCc1cccc(CC)c1-n1c2c(cc(-c3nc(-c4cccc(C(F)(F)F)c4)cs3)c1=O)C(=O)CC(C)(C)C2 [Compound 228] | > 20 µM | > 20 µM |  | 
CCc1cccc(CC)c1-n1c(CC2CCCO2)c(C(=O)N2CCNCC2)cc(-c2nc(-c3ccc(Cl)cc3)cs2)c1=O (stereo not drawn) [Compound 506] |  |  | < 0.3 µM | < 0.3 µM
CCc1ccc(F)cc1-n1c(C=C(C)C)c(C(=O)N2CCNCC2)cc(-c2nc(-c3ccc(C(F)(F)F)nc3)cs2)c1=O [Compound 424] |  |  | 0.3 to 1 µM | < 0.3 µM
